Results on two compounds are retold here after US20130053243A1, “PLANTS HAVING INCREASED TOLERANCE TO HERBICIDES” (BASF SE, priority 2010, published 2013).

Experiment [1] concerns the target T1, Arabidopsis HPPD (Arabidopsis thaliana, UniProt P93836).
T1 construct: His6 (N); made in house; host or cells: E. coli BL21 (DE3)
T1 sequence (P93836 1-445): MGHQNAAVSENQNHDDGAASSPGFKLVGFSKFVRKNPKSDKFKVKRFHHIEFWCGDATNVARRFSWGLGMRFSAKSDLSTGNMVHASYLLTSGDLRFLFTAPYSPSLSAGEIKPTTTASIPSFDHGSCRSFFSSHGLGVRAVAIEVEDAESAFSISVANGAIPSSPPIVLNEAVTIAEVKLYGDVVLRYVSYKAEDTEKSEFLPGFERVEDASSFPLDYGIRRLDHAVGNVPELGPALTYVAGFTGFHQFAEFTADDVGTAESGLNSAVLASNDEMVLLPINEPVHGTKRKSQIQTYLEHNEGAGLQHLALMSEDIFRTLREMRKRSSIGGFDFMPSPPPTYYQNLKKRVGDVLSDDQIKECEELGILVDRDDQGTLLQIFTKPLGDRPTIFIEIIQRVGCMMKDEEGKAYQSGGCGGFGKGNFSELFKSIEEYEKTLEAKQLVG
As to the kind of experiment: HPPD activity assay (homogentisic acid by HPLC), wildtype enzyme. The experiment is classed as biochemical. The conditions noted are these: Table 11, calculated from IC50 with Cheng-Prusoff equation, read-out: dissociation constant Ki. How it is done:
(§1) HPPD produces homogentisic acid and CO2 from 4-hydroxyphenylpyruvate (4-HPP) and O2. The activity assay for HPPD is based on the analysis of homogentisic acid by reversed phase HPLC.
(§2) The assay mixture can contain 150 mM potassium phosphate buffer pH 7.0, 50 mM L-ascorbic acid, 1 μM FeSO4 and 7 μg of purified enzyme in a total volume of 1 ml.
Inhibitors are dissolved in DMSO (dimethylsulfoxide) to a concentration of 20 mM or 0.5 mM, respectively. From this stock solution serial five-fold dilutions are prepared in DMSO, which are used in the assay. The respective inhibitor solution accounts for 1% of the assay volume. Thus, final inhibitor concentrations range from 200 μM to 2.5 nM or from 5 μM to 63 pM, respectively.
(§3) After a preincubation of 30 min the reaction is started by adding 4-HPP to a final concentration of 0.1 mM. The reaction is allowed to proceed for 120 min at room temperature. The reaction is stopped by addition of 100 μl of 4.5 M phosphoric acid.
The sample is extracted on an Oasis® HLB cartridge 3 cc/60 mg (Waters) that was preequilibrated with 63 mM phosphoric acid. L-ascorbic acid is washed out with 3 ml of 63 mM phosphoric acid. […]
10 μl of the eluate is analyzed by reversed phase HPLC on a Symmetry® C18 column (particle size 3.5 μm, dimensions 4.6×100 mm; Waters) using 5 mM H3PO4/15% ethanol (w/w) as an eluent.
Homogentisic acid is detected electrochemically and quantified by measuring peak areas (Empower software; Waters).
Activities are normalized by setting the uninhibited enzyme activity to 100%. IC50 values are calculated using non-linear regression. […]
5 μl of the cleared sample is analyzed on an Atlantis T3 column (particle size 3 μm, dimensions 3×50 mm; Waters) by isocratic elution using 90% 10 mM NaH2PO4 pH 2.2, 10% methanol (v/v).
(§4) HGA is detected electrochemically at 750 mV (mode: DC; polarity: positive) and quantified by integrating peak areas (Empower software; Waters).
Inhibitors are dissolved in DMSO (dimethylsulfoxide) to a concentration of 0.5 mM. […] IC50 values are calculated using non-linear regression. […]

Experiment [2] addresses Chlamydomonas HPPD1 (Chlamydomonas reinhardtii, UniProt A0A2K3DET7). As to the kind of experiment: HPPD activity assay, wildtype enzyme. Type of experiment: biochemical. The conditions noted are these: calculated from IC50 with Cheng-Prusoff equation, read-out: dissociation constant Ki. How it is done: as §1, §2
Inhibitors are dissolved in DMSO (dimethylsulfoxide) to a concentration of 20 mM or 0.5 mM, respectively. From this stock solution serial five-fold dilutions are prepared in DMSO, which are used in the assay. The respective inhibitor solution accounts for 1% of the assay volume.
as §3
Activities are normalized by setting the uninhibited enzyme activity to 100%. IC50 values are calculated using non-linear regression.
The assay mixture can contain 150 mM potassium phosphate buffer pH 7.0, 50 mM L-ascorbic acid, 100 μM Catalase (Sigma-Aldrich), 1 μM FeSO4 and 0.2 units of purified HPPD enzyme in a total volume of 505 μl. […]
as §4
Inhibitors are dissolved in DMSO (dimethylsulfoxide) to a concentration of 0.5 mM. […] IC50 values are calculated using non-linear regression.
Using methods which are described in the above examples or well known in the art, purified, recombinant wildtype HPPD enzymes are characterized with respect to their kinetic properties and sensitivity towards HPPD inhibiting herbicides. Apparent michaelis constants (Km) and maximal reaction velocities (Vmax) are calculated by non-linear regression with the software GraphPad Prism 5 (GraphPad Software, La Jolla, USA) using a substrate inhibition model. […] Weighted means (by standard error) of Km and IC50 values are calculated from at least three independent experiments.

The structures appear in SMILES notation.

Chain of Chlamydomonas HPPD1 (A0A2K3DET7 entry or part of it): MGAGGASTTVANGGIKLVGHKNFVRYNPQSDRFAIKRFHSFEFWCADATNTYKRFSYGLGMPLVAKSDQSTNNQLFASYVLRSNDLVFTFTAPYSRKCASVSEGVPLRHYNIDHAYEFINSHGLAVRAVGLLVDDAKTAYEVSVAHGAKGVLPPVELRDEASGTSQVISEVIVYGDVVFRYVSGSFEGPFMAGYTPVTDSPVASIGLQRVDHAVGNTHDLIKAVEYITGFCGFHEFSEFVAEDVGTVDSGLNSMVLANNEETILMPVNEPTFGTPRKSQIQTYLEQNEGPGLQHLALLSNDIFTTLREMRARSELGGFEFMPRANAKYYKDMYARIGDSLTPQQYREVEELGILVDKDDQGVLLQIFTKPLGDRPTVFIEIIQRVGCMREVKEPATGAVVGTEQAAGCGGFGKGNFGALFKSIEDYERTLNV

With `CC1=NOC(c2c(Cl)ccc(C3=C(O)c4ncccc4N(CC(F)F)S3(=O)=O)c2Cl)C1` (stereo not shown) [Inhibitor 1, 3-[2,4-dichloro-3-(3-methyl-4,5-dihydroisoxazol-5-yl)phenyl]-1-(2,2-difluoroethyl)-2,2-dioxo-pyrido[3,2-c]thiazin-4-ol], the results for the Ki in experiment [1] and in experiment [2] were 3 nM and 29 nM, respectively.
`Cc1c(C(=O)c2cnn(C)c2O)ccc(S(C)(=O)=O)c1C1=NOCC1` [Topramezone, reference compound]: the Ki is 4 nM in experiment [1] and 38 nM in experiment [2].

For orientation: Ki means a dissociation constant, usually derived from enzyme kinetics or from competition with a known ligand.
